Measurements: patent publication US4684664A, “Derivatives of β-(4-isocyano-1,2,3,4-diepoxycyclopentyl) acrylic acid” (Kureha Kagaku Kogyo Kabushiki Kaisha, priority 1984, dated 1987)
≈ marks a conversion by molar mass, not a printed value.

Assays:
Format in all cases: cell-based
[1] = system: Pseudomonas aeruginosa NCTC 10490; test: Antibacterial activity, agar-dilution MIC, organism No. 16; settings: Pseudomonas aeruginosa, NCTC10490; Organism No. 16, bouillon-agar; read-out: Minimum Inhibitory Concentration
Procedure, shortened: (§1)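 Read-out is the minimum inhibitory concentration, given as μg/ml of the culture medium, obtained by agar dilution using bouillon agar.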

[2] = system: Salmonella paratyphi-A 1015; test: Antibacterial activity, agar-dilution MIC, organism No. 10; settings: Salmonella enterica, PARATYPHI, read-out: Minimum Inhibitory Concentration
Procedure, shortened: as §1

[3] = system: Bacillus subtilis ATCC 6633; test: Antibacterial activity, agar-dilution MIC, organism No. 14; settings: Bacillus subtilis, ATCC6633; Organism No. 14, bouillon-agar; read-out: Minimum Inhibitory Concentration
Procedure, shortened: as §1

[4] = system: Staphylococcus aureus MS 353; test: Antibacterial activity, agar-dilution MIC, organism No. 3; settings: Staphylococcus aureus, MS353; Organism No. 3, bouillon-agar; read-out: Minimum Inhibitory Concentration
Procedure, shortened: as §1

[5] = system: Salmonella shottmuelleri 8006; test: Antibacterial activity, agar-dilution MIC, organism No. 11; settings: Salmonella, 8006; Organism No. 11, bouillon-agar; read-out: Minimum Inhibitory Concentration
Procedure, shortened: as §1

[6] = system: Pseudomonas aeruginosa PAO 1; test: Antibacterial activity, agar-dilution MIC, organism No. 17; settings: Pseudomonas aeruginosa, PAO1; Organism No. 17, bouillon-agar; read-out: Minimum Inhibitory Concentration
Procedure, shortened: as §1

[7] = system: Salmonella enteritidis G 14; test: Antibacterial activity, agar-dilution MIC, organism No. 12; settings: Salmonella enterica, ENTERITIDIS; Organism No. 12, bouillon-agar; read-out: Minimum Inhibitory Concentration
Procedure, shortened: as §1

[8] = system: Escherichia coli NIHJ-JC-2; test: Antibacterial activity, agar-dilution MIC, organism No. 5; settings: Escherichia coli, NIHJJC2; Organism No. 5, bouillon-agar; read-out: Minimum Inhibitory Concentration
Procedure, shortened: as §1

[9] = system: Micrococcus luteus ATCC 9341; test: Antibacterial activity, agar-dilution MIC, organism No. 25; settings: Micrococcus luteus, ATCC9341; Organism No. 25, bouillon-agar; read-out: Minimum Inhibitory Concentration
Procedure, shortened: as §1

[10] = system: Aspergillus niger IFO 6342; test: Antifungal activity, agar-dilution MIC, organism No. 30; settings: Aspergillus niger, IFO6342; Organism No. 30, bouillon-agar; read-out: Minimum Inhibitory Concentration
Procedure, shortened: as §1

[11] = system: Salmonella typhimurium IID 971; test: Antibacterial activity, agar-dilution MIC, organism No. 8; settings: Salmonella enterica; Organism No. 8, bouillon-agar; read-out: Minimum Inhibitory Concentration
Procedure, shortened: as §1

[12] = system: Pseudomonas aeruginosa IFO 3445; test: Antibacterial activity, agar-dilution MIC, organism No. 15; settings: Pseudomonas aeruginosa, IFO3445; Organism No. 15, bouillon-agar; read-out: Minimum Inhibitory Concentration
Procedure, shortened: as §1

[13] = system: Proteus rettgeri IFO 3850; test: Antibacterial activity, agar-dilution MIC, organism No. 22; settings: Providencia rettgeri, IFO3850; Organism No. 22, bouillon-agar; read-out: Minimum Inhibitory Concentration
Procedure, shortened: as §1

[14] = system: Enterobacter aerogenes ATCC 13048; test: Antibacterial activity, agar-dilution MIC, organism No. 23; settings: Klebsiella aerogenes, ATCC13048; Organism No. 23, bouillon-agar; read-out: Minimum Inhibitory Concentration
Procedure, shortened: as §1

[15] = system: Staphylococcus aureus Terajima; test: Antibacterial activity, agar-dilution MIC, organism No. 2; settings: Staphylococcus aureus; Organism No. 2, bouillon-agar; read-out: Minimum Inhibitory Concentration
Procedure, shortened: as §1

[16] = system: Staphylococcus aureus FDA 209PJc-1; test: Antibacterial activity, agar-dilution MIC, organism No. 1; settings: Staphylococcus aureus, FDA209PJC1; Organism No. 1, bouillon-agar; read-out: Minimum Inhibitory Concentration
Procedure, shortened: as §1

[17] = system: Proteus mirabilis IFO 3849; test: Antibacterial activity, agar-dilution MIC, organism No. 19; settings: Proteus mirabilis, IFO3849; Organism No. 19, bouillon-agar; read-out: Minimum Inhibitory Concentration
Procedure, shortened: as §1

[18] = system: Streptococcus pyogenes Cook; test: Antibacterial activity, agar-dilution MIC, organism No. 4; settings: Streptococcus pyogenes; Organism No. 4, bouillon-agar; read-out: Minimum Inhibitory Concentration
Procedure, shortened: as §1

Enterobacter cloacae 963 = test: Antibacterial activity, agar-dilution MIC, organism No. 24; settings: Enterobacter cloacae, 963; Organism No. 24, bouillon-agar; read-out: Minimum Inhibitory Concentration
Procedure, shortened: as §1

[19] = system: Escherichia coli K12 C600 IAM 1264; test: Antibacterial activity, agar-dilution MIC, organism No. 6; settings: Escherichia coli, IAM1264; Organism No. 6, bouillon-agar; read-out: Minimum Inhibitory Concentration
Procedure, shortened: as §1

Salmonella typhi 901 = test: Antibacterial activity, agar-dilution MIC, organism No. 9; settings: Salmonella enterica, TYPHI, read-out: Minimum Inhibitory Concentration
Procedure, shortened: as §1

[20] = system: Proteus morganii IFO 3848; test: Antibacterial activity, agar-dilution MIC, organism No. 18; settings: Morganella morganii, IFO3848; Organism No. 18, bouillon-agar; read-out: Minimum Inhibitory Concentration
Procedure, shortened: as §1

[21] = system: Streptococcus pyogenes IFO 3340; test: Antibacterial activity, agar-dilution MIC, organism No. 26; settings: Streptococcus pyogenes, IFO3340; Organism No. 26, bouillon-agar; read-out: Minimum Inhibitory Concentration
Procedure, shortened: as §1

Proteus vulgaris HX-19 = test: Antibacterial activity, agar-dilution MIC, organism No. 21; settings: Proteus vulgaris, HX19; Organism No. 21, bouillon-agar; read-out: Minimum Inhibitory Concentration
Procedure, shortened: as §1

[22] = system: Candida albicans IAM 4905; test: Antifungal activity, agar-dilution MIC, organism No. 29; settings: Candida albicans, IAM4905; Organism No. 29, bouillon-agar; read-out: Minimum Inhibitory Concentration
Procedure, shortened: as §1

[23] = system: Klebsiella pneumoniae PCI-602; test: Antibacterial activity, agar-dilution MIC, organism No. 7; settings: Klebsiella pneumoniae, PCI602; Organism No. 7, bouillon-agar; read-out: Minimum Inhibitory Concentration
Procedure, shortened: as §1

[24] = system: Mycoplasma pneumoniae IID817; test: Antimycoplasmal activity, MIC by phenol red colour change, organism No. 28; settings: Mycoplasma, IID817; Organism No. 28, PPLO broth + 1% glucose, 37° C.; read-out: Minimum Inhibitory Concentration (MIC)
Procedure: Mycoplasma pneumoniae IID817 was used as the test microorganism in a culture medium prepared by adding 1% of glucose to "PPLO broth (manufactured by Difco Co.) liquid culture medium" at 37° C. with phenol red as an indicator, thereby culturing the test microorganism.

Proteus vulgaris OX-19 = test: Antibacterial activity, agar-dilution MIC, organism No. 20; settings: Proteus vulgaris, OX19; Organism No. 20, bouillon-agar; read-out: Minimum Inhibitory Concentration
Procedure, shortened: as §1

[25] = system: Serratia marcescens IAM 1184; test: Antibacterial activity, agar-dilution MIC, organism No. 13; settings: Serratia marcescens, IAM1184; Organism No. 13, bouillon-agar; read-out: Minimum Inhibitory Concentration
Procedure, shortened: as §1

[26] = system: Streptococcus faecium IFO 3826; test: Antibacterial activity, agar-dilution MIC, organism No. 27; settings: Enterococcus faecium, IFO3826; Organism No. 27, bouillon-agar; read-out: Minimum Inhibitory Concentration
Procedure, shortened: as §1

In the case of `[C-]#[N+]C12CC3(/C=C/C(=O)OCC(=O)c4cccc(OC)c4)OC3C1O2` (stereo not drawn) [compound 7], the MIC [1] is reported as > 100 µg/mL, the MIC [2] is reported as 12.5 µg/mL (≈ 36.6 µM) and the MIC [3] is reported as 6.25 µg/mL (≈ 18.3 µM). The MIC [4] was 0.39 µg/mL (≈ 1.14 µM), the MIC [5] was 6.25 µg/mL (≈ 18.3 µM) and the MIC [6] was > 100 µg/mL. For the same compound, the MIC [7] was 12.5 µg/mL (≈ 36.6 µM), the MIC [8] was 25 µg/mL (≈ 73.2 µM) and the MIC [9] was 0.39 µg/mL (≈ 1.14 µM). For the same compound, the MIC [10] was 3.13 µg/mL (≈ 9.17 µM), the MIC [11] was 25 µg/mL (≈ 73.2 µM) and the MIC [12] was > 100 µg/mL. The MIC [13] was > 100 µg/mL, the MIC [14] was > 100 µg/mL and the MIC [15] was 6.25 µg/mL (≈ 18.3 µM). It also gave an MIC [16] of 0.39 µg/mL (≈ 1.14 µM), an MIC [17] of 12.5 µg/mL (≈ 36.6 µM) and an MIC [18] of 12.5 µg/mL (≈ 36.6 µM). The MIC (Enterobacter cloacae 963) was > 100 µg/mL, the MIC [19] was 12.5 µg/mL (≈ 36.6 µM) and the MIC (Salmonella typhi 901) was 6.25 µg/mL (≈ 18.3 µM). It also gave an MIC [20] of 12.5 µg/mL (≈ 36.6 µM), an MIC [21] of 12.5 µg/mL (≈ 36.6 µM) and an MIC (Proteus vulgaris HX-19) of 0.39 µg/mL (≈ 1.14 µM). The MIC [22] was 1.56 µg/mL (≈ 4.57 µM), the MIC [23] was 3.13 µg/mL (≈ 9.17 µM) and the MIC [24] was < 0.2 µg/mL. It also gave an MIC (Proteus vulgaris OX-19) of 1.56 µg/mL (≈ 4.57 µM), an MIC [25] of 25 µg/mL (≈ 73.2 µM) and an MIC [26] of 6.25 µg/mL (≈ 18.3 µM).

`[C-]#[N+]C12CC3(/C=C/C(=O)Nc4ccccc4O)OC3C1O2` (stereo not drawn) [compound 58] was tested, and the MIC [1] was > 200 µg/mL, the MIC [2] was 1.56 µg/mL (≈ 5.49 µM) and the MIC [3] was 12.5 µg/mL (≈ 44 µM). The MIC [4] was 3.13 µg/mL (≈ 11 µM), the MIC [5] was 1.56 µg/mL (≈ 5.49 µM) and the MIC [6] was > 200 µg/mL. It also gave an MIC [7] of 3.13 µg/mL (≈ 11 µM), an MIC [8] of 12.5 µg/mL (≈ 44 µM) and an MIC [9] of 0.2 µg/mL (≈ 0.704 µM). For the same compound, the MIC [10] was 12.5 µg/mL (≈ 44 µM), the MIC [11] was 6.25 µg/mL (≈ 22 µM) and the MIC [12] was > 200 µg/mL. The MIC [13] was 1.56 µg/mL (≈ 5.49 µM), the MIC [14] was > 200 µg/mL and the MIC [15] was 3.13 µg/mL (≈ 11 µM). It also gave an MIC [16] of 3.13 µg/mL (≈ 11 µM), an MIC [17] of 12.5 µg/mL (≈ 44 µM) and an MIC [18] of 12.5 µg/mL (≈ 44 µM). It also gave an MIC (Enterobacter cloacae 963) of 100 µg/mL (≈ 352 µM), an MIC [19] of 12.5 µg/mL (≈ 44 µM) and an MIC (Salmonella typhi 901) of 3.13 µg/mL (≈ 11 µM). For the same compound, the MIC [20] was 1.56 µg/mL (≈ 5.49 µM), the MIC [21] was 3.13 µg/mL (≈ 11 µM) and the MIC (Proteus vulgaris HX-19) was 0.78 µg/mL (≈ 2.74 µM). For the same compound, the MIC [22] was 12.5 µg/mL (≈ 44 µM), the MIC [23] was 0.78 µg/mL (≈ 2.74 µM) and the MIC [24] was < 0.2 µg/mL. It also gave an MIC (Proteus vulgaris OX-19) of 0.78 µg/mL (≈ 2.74 µM), an MIC [25] of 12.5 µg/mL (≈ 44 µM) and an MIC [26] of 12.5 µg/mL (≈ 44 µM).
